Test results taken from article PMC10058671 (Pharmaceutics, 2023).
Values after ≈ are worked out from the molar mass of the structure shown. Read-outs that look alike come from different tables or passages of the source.

What was measured:
[1] = Pharmacokinetic study after daily oral pyronaridine/artesunate in hamsters (noncompartmental analysis of observed blood, lung and trachea concentrations); parameters: species or system golden hamsters; conditions: for tolerability of the doses (no unscheduled deaths): 180/60 and 360/120 mg/kg pyronaridine/artesunate oral once a day for 3 days
Experimental: One hundred eight male golden hamsters were obtained from Janvier Lab. (Le Genest-Saint-Isle, France). All hamsters were maintained on a 12-h dark–light cycle at a temperature of 23 ± 3 °C and relative humidity of 55 ± 15%. This study was conducted according to the Guidelines for Ethical Conduct in the Care and Use of Animals and the rules of Good Laboratory Practice and was approved by the Institutional Animal Care and Use Committee (IACUC, protocol number SP2021-14) at Shin Poong Pharm. Co., Ltd. (Seoul, Republic of Korea).
The hamsters (102.01 ± 5.72 g) were divided into two groups: a low-dose group (n = 60) and a high-dose group (n = 48). […] Blood samples (0.5 mL) were drawn from the jugular vein into heparinized tubes at the following times: 0 (predose), 0.08, 0.25, 0.5, 0.75, 1, 2, 4, 8, 12, 24, 47, 48.08, 48.25, 48.5, 48.75, 49, 50, 52, 56, 60, and 72 h during oral administration for 3 days. The blood sampling was conducted 1–3 times per hamster within 72 h, and the tissues were collected after the last blood sampling. The number of animals was four per blood and tissue sampling time point, respectively (each n = 4). The lung and trachea tissues were immediately obtained after sacrificing hamsters, washed in normal saline, and dried with filter papers. The lung and trachea sampling times were as follows: 0.08, 0.25, 0.5, 0.75, 1, 4, 8, 24, 48.08, 48.25, 48.75, 52, and 72 h. Tissues were individually weighed and homogenized with water (lung or trachea tissue: water = 1:4 w/v). The lung and trachea tissue homogenate were stored at −70 °C until sample analysis. For pyronaridine quantification, whole blood samples were stored at −70 °C until sample analysis.
Liquid chromatography was conducted on the Agilent 1290 Infinity II LC System (Agilent Technologies Inc., Santa Clara, CA, USA) coupled to a 6490 Triple Quad Mass Spectrometer (Agilent Technologies Inc., Santa Clara, CA, USA). A Synergi Max-RP column (2.0 × 75 mm, 4 μm particle size, Phenomenex, Torrance, CA, USA) was used at a temperature of 25 °C. The mobile phase consisted of 0.04% TFA (mobile phase A) and methanol:acetonitrile (3:1 v/v, mobile phase B) with a flow rate of 0.2 mL/min. A gradient elution was used for the chromatographic separation of pyronaridine as follows: 0.0–1.5 min, 10% B; 1.5–1.6 min, 10–60% B; 1.6–4.0 min, 60% B; 4.0–4.1 min, 60–10% B; […], 10% B. The multiple reaction monitoring (MRM) mode was set with a positive electrospray ionization mode. The MRM transitions of pyronaridine and amodiaquine (internal standard, IS) were 518.2 > 447.1 and 356.2 > 283.0. The collision energy of pyronaridine and amodiaquine were 17 and 21 eV, and the cell accelerator voltage was 5 V for both compounds.
Chromatographic separation was performed with an Inertsil ODS column (2.1 × 100 mm, 5 µm particle size, GL Sciences, Tokyo, Japan) column at a temperature of 25 ℃. The mobile phase consisted of 10 mM ammonium acetate (mobile phase A) and acetonitrile (mobile phase B) with an isocratic elution (A:B = 10:90, v/v), and a flow rate of 0.2 mL/min. The mass spectrometer was operated on electrospray ionization positive mode.
Fifty μL of hamster blood, lung, or trachea tissue homogenates were added with 10 μL of the IS solution (10 μg/mL of amodiaquine). Added to the mixed sample were 125 μL of 0.5 M sodium phosphate tribasic dodecahydrate buffer (pH adjusted to 10.3 with 85% ortho-phosphoric acid) and 500 μL of ether, vortexed for 5 min and centrifuged at 21,130× g for 5 min. Then, 300 μL of supernatant were transferred to new microtubes and dried under nitrogen steam at room temperature. The dried residues were reconstituted with 100 μL of mobile phase (0.04% TFA:methanol:acetonitrile = 40:45:15, v/v/v) and vortexed for 5 min. After centrifugation at 21,130× g for 5 min, 5 μL of aliquot were injected into the UPLC-MS/MS system.
Then, 50 μL of hamster plasma, lung, or trachea tissue homogenates were added with 10 μL of the IS solution (5 μg/mL of artemisinin).

SARS-CoV-2 [2] = tested on: SARS-CoV-2; parameters: method as in PMID 34272426; conditions: range in different cell types; cited from earlier work
SARS-CoV-2 [3] = tested on: SARS-CoV-2; parameters: method as in PMID 32786284; conditions: anti-SARS-CoV-2; cited from earlier work
SARS-CoV-2 [4] = conditions: Call-3 cells, dose-dependent manner; cited from earlier work
seasonal influenza A = conditions: Call-3 cells, dose-dependent manner; cited from earlier work
[5] = rodents; cited from earlier work
[6] = in vivo; cited from earlier work
[7] = cited from earlier work
[8] = rat, in vivo; cited from earlier work
[9] = dog, in vivo; cited from earlier work
SARS-CoV-2 [10] = tested on: SARS-CoV-2; parameters: method as in PMID 32916297; conditions: in vitro anti-SARS-CoV-2; cited from earlier work
SARS-CoV-2 in Vero cells = conditions: cited from earlier work
[11] = tested on: SARS-CoV-2 in Vero E6 cells; parameters: method as in PMID 33075512; conditions: cited from earlier work
[12] = tested on: SARS-CoV-2 in Huh7.5 cells; parameters: method as in PMID 34755538; conditions: cited from earlier work
[13] = tested on: SARS-CoV-2 in Calu-3 cells; parameters: method as in PMID 34755538; conditions: cited from earlier work
SARS-CoV-2 [14] = tested on: SARS-CoV-2; parameters: method as in PMID 35609344; conditions: SARS-CoV-2 infected mice; cited from earlier work
[15] = fitted, parent-metabolite model
[16] = male, golden, hamster, in vivo, po, 180 mg/kg
[17] = male, golden, hamster, in vivo, po, 360 mg/kg

## C[C@H]1[C@H](OC(=O)CCC(=O)O)O[C@@H]2O[C@@]3(C)CC[C@H]4[C@H](C)CC[C@@H]1[C@@]24OO3 [Artesunate, artesunate]
[1]
  tolerability of the doses (no unscheduled deaths): tolerated
fitted
  Klung (lung-to-blood partition coefficient): 10.33
  Ktrachea (trachea-to-blood partition coefficient): 1.48
  ka (first-order absorption rate constant): 1.74 h⁻¹
  klt (lung-to-trachea transfer rate constant): 0.34 h⁻¹
  ktl (trachea-to-lung transfer rate constant): 1.50 h⁻¹
hamster
  CL/F (apparent total clearance): 2517.70 L/h
SARS-CoV-2 [2]
  EC50: 18.2 to 31.2 µM
SARS-CoV-2 [3]
  EC50: 13 µM
SARS-CoV-2 [4]
  growth and viral replication of SARS-CoV-2: inhibited the growth and viral replication
Seasonal influenza A
  growth and viral replication of seasonal influenza A: inhibited the growth and viral replication
[5]
  maximal nonlethal dose: 500 mg/kg
[6]
  elimination half-life: 19.2 to 31.2 min
  time to peak concentrations: less than five minutes
  time until concentrations decreased below the quantification limit: 2 h

## C[C@H]1[C@@H](O)O[C@@H]2O[C@@]3(C)CC[C@H]4[C@H](C)CC[C@@H]1[C@@]24OO3 [Dihydroartemisinin, dihydroartemisinin]
[15]
  Klung,m (lung-to-blood partition coefficient): 0.34
  Krest,m (rest of the body-to-blood partition coefficient): 1.21
  Ktrachea,m (trachea-to-blood partition coefficient): 1.08
  klt,m (lung-to-trachea transfer rate constant): 0.35 h⁻¹
  ktl,m (trachea-to-lung transfer rate constant): 6.98 h⁻¹
hamster
  CLm/F (apparent total clearance of metabolite): 10.33 L/h
SARS-CoV-2 [3]
  EC50: 13.3 µM
[7]
  blood-to-plasma ratio / partition coefficient (Kb:p, Kb:p,m): 0.75
[8]
  elimination half-life: 15 to 61.8 min
[9]
  elimination half-life: 0.39 to 0.66 h
[6]
  elimination half-life: 19.2 to 31.2 min
  time to peak concentrations: less than five minutes

## COc1ccc2nc3cc(Cl)ccc3c(Nc3cc(CN4CCCC4)c(O)c(CN4CCCC4)c3)c2n1 [Pyronaridine, Pyronaridine tetraphosphate]
[1]
  tolerability of the doses (no unscheduled deaths): tolerated
[1]; male, golden, hamster, in vivo, lung-to-blood AUC ratio
  Kp at 3 day: 51
[1]; male, golden, hamster, in vivo, lung-to-blood AUC ratio (=AUClung/AUCblood)
  Kp at 1 day: 25.5
[1]; [16]
  AUC at 1 day: 24100 ng·h/mL
  AUC at 3 day: 57100 ng·h/mL
  Cmax: 2700 ng/mL
[1]; [17]
  AUC at 1 day: 51000 ng·h/mL
  AUC at 3 day: 84900 ng·h/mL
  Cmax: 4540 ng/mL
  Tmax: 120 to 240 min
[1]; male, golden, hamster, in vivo, trachea-to-blood AUC ratio
  Kp at 3 day: 16.6
[1]; male, golden, hamster, in vivo, trachea-to-blood AUC ratio (=AUCtrachea/AUCblood)
  Kp at 1 day: 7.17
fitted
  Klung (lung-to-blood partition coefficient): 26.06
  Krest (rest of the body-to-blood partition coefficient): 5.25 × 10^−7
  Ktrachea (trachea-to-blood partition coefficient): 8.67
  ka (first-order absorption rate constant): 0.03 h⁻¹
  klt (lung-to-trachea transfer rate constant): 0.92 h⁻¹
  ktl (trachea-to-lung transfer rate constant): 1.01 h⁻¹
hamster
  CL/F (apparent total clearance): 0.21 L/h
SARS-CoV-2 [10]
  EC50: 0.72 µM
  EC90: 0.75 µM
SARS-CoV-2 in Vero cells; after 24 h of culture
  EC50: 0.5699 µg/mL (≈ 1.1 µM)
SARS-CoV-2 in Vero cells; after 48 h of culture
  EC50: 1.1397 µg/mL (≈ 2.2 µM)
[11]
  EC50: 0.373 µg/mL (≈ 0.72 µM)
[12]
  concentration showing anti-SARS-CoV-2 activity: 103.6 ng/mL
[13]
  concentration showing anti-SARS-CoV-2 activity: 8.6 ng/mL
SARS-CoV-2 [14]
  viral load in the lungs: significant inhibition of the viral load in the lungs
SARS-CoV-2 [4]
  growth and viral replication of SARS-CoV-2: inhibited the growth and viral replication
Seasonal influenza A
  growth and viral replication of seasonal influenza A: inhibited the growth and viral replication
[7]
  blood-to-plasma ratio: 4.9–17.8
[5]
  maximal nonlethal dose: 1500 mg/kg
[8]
  elimination half-life: two to four days
[9]
  elimination half-life: 60 h
